From PMC4623880 (Digestive diseases and sciences, 2015)
Entries after “also recorded” stand apart in the source; their conditions may differ. Where two headings read alike, the source gives them in different places.

Columns and labels:
[1] = type: in vivo, human; details: for Cmax: N-desmethyl sildenafil, after 2.5 mg IV bolus sildenafil; for observed maximum concentration of plasma sildenafil: 2.5 mg IV bolus
[2] = cited from earlier work
[3] = Tolerability and hemodynamics; type: in vivo, human; details: for tolerability / safety of IV sildenafil: both subjects, single 2.5 mg IV bolus injection
[4] = healthy volunteers; cited from earlier work
[5] = subject 1, 16 min after 2.5 mg IV bolus sildenafil
[6] = subject 1, 30 min after 2.5 mg IV bolus sildenafil
[7] = subject 1, 60 min after 2.5 mg IV bolus sildenafil
[8] = subject 1, 120 min after 2.5 mg IV bolus sildenafil
[9] = subject 1, 178 min after 2.5 mg IV bolus sildenafil
[10] = subject 1, 242 min after 2.5 mg IV bolus sildenafil
[11] = subject 1, 360 min after 2.5 mg IV bolus sildenafil
[12] = subject 1, 480 min after 2.5 mg IV bolus sildenafil
[13] = subject 2, 15 min after 2.5 mg IV bolus sildenafil
[14] = subject 2, 30 min after 2.5 mg IV bolus sildenafil
[15] = subject 2, 60 min after 2.5 mg IV bolus sildenafil
[16] = subject 2, 122 min after 2.5 mg IV bolus sildenafil
[17] = subject 2, 180 min after 2.5 mg IV bolus sildenafil
[18] = subject 2, 240 min after 2.5 mg IV bolus sildenafil
[19] = subject 2, 360 min after 2.5 mg IV bolus sildenafil
[20] = subject 2, 480 min after 2.5 mg IV bolus sildenafil

For `CCCc1nn(C)c2c(=O)[nH]c(-c3cc(S(=O)(=O)N4CCNCC4)ccc3OCC)nc12` [N-desmethyl Sildenafil, N-desmethyl sildenafil], the Cmax ([1]; subject 1) was 2.6 ng/mL, the Cmax ([1]; subject 2) was 1.1 ng/mL and the “N-desmethyl Sildenafil Concentration” value ([1]; plasma, subject 1, 16 min after 2.5 mg IV bolus sildenafil) was 1.21 ng/mL. The “N-desmethyl Sildenafil Concentration” value ([1]; plasma, subject 1, 30 min after 2.5 mg IV bolus sildenafil) was “BLQ”, the “N-desmethyl Sildenafil Concentration” value ([1]; plasma, subject 1, 60 min after 2.5 mg IV bolus sildenafil) was 2.26 ng/mL and the “N-desmethyl Sildenafil Concentration” value ([1]; plasma, subject 1, 88 min after 2.5 mg IV bolus sildenafil) was 2.10 ng/mL. For the same molecule, the “N-desmethyl Sildenafil Concentration” value ([1]; plasma, subject 1, 120 min after 2.5 mg IV bolus sildenafil) was 2.49 ng/mL, the “N-desmethyl Sildenafil Concentration” value ([1]; plasma, subject 1, 178 min after 2.5 mg IV bolus sildenafil) was 2.64 ng/mL and the “N-desmethyl Sildenafil Concentration” value ([1]; plasma, subject 1, 242 min after 2.5 mg IV bolus sildenafil) was 2.19 ng/mL. The “N-desmethyl Sildenafil Concentration” value ([1]; plasma, subject 1, 360 min after 2.5 mg IV bolus sildenafil) was 2.00 ng/mL, the “N-desmethyl Sildenafil Concentration” value ([1]; plasma, subject 1, 480 min after 2.5 mg IV bolus sildenafil) was 1.53 ng/mL and the “N-desmethyl Sildenafil Concentration” value ([1]; plasma, subject 2, 15 min after 2.5 mg IV bolus sildenafil) was “BLQ”. For the same molecule, the “N-desmethyl Sildenafil Concentration” value ([1]; plasma, subject 2, 30 min after 2.5 mg IV bolus sildenafil) was “BLQ”, the “N-desmethyl Sildenafil Concentration” value ([1]; plasma, subject 2, 60 min after 2.5 mg IV bolus sildenafil) was “BLQ” and the “N-desmethyl Sildenafil Concentration” value ([1]; plasma, subject 2, 90 min after 2.5 mg IV bolus sildenafil) was “BLQ”. For the same molecule, the “N-desmethyl Sildenafil Concentration” value ([1]; plasma, subject 2, 122 min after 2.5 mg IV bolus sildenafil) was “BLQ”, the “N-desmethyl Sildenafil Concentration” value ([1]; plasma, subject 2, 180 min after 2.5 mg IV bolus sildenafil) was 1.06 ng/mL and the “N-desmethyl Sildenafil Concentration” value ([1]; plasma, subject 2, 240 min after 2.5 mg IV bolus sildenafil) was “BLQ”. For the same molecule, the “N-desmethyl Sildenafil Concentration” value ([1]; plasma, subject 2, 360 min after 2.5 mg IV bolus sildenafil) was “BLQ”, the “N-desmethyl Sildenafil Concentration” value ([1]; plasma, subject 2, 480 min after 2.5 mg IV bolus sildenafil) was “BLQ” and the metabolite concentrations ([1]; plasma, subject 2, all times except 180 minutes after sildenafil injection) was “unmeasurable”. For the same molecule, the “N-desmethyl sildenafil AUC increased compared to healthy subjects” value ([2]; CTP class A and B cirrhosis) was 154%, the “mean Cmax of N-desmethyl sildenafil increased compared to normal controls” value ([2]; CTP class A and B cirrhosis) was 87% and the “N-desmethyl sildenafil AUC/sildenafil AUC” value ([2]; healthy subjects) was 52%. For the same molecule, the “N-desmethyl sildenafil AUC/sildenafil AUC” value ([2]; subjects with CTP Class A and B cirrhosis) was 71%.

For `CCCc1nn(C)c2c(=O)[nH]c(-c3cc(S(=O)(=O)N4CCN(C)CC4)ccc3OCC)nc12` [Sildenafil, sildenafil], the “tolerability / safety of IV sildenafil” value [3] was “without side effects”, the “tolerability / safety of IV sildenafil” value ([3]; listed as sildenafil) was “without adverse events; also recorded: safe and tolerable; also recorded: can be safely administered” and the “adverse events reported at interview” value ([3]; forty-eight hours after sildenafil injection) was “did not report any adverse events”. For the same molecule, the “Heart Rate” value [3, 5] was 53, the “Mean Arterial Pressure” value [3, 5] was 75 mmHg and the “Heart Rate” value [3, 6] was 53. The “Mean Arterial Pressure” value [3, 6] was 78 mmHg, the “Heart Rate” value [3, 7] was 55 and the “Mean Arterial Pressure” value [3, 7] was 78 mmHg. The “Heart Rate” value [3, 8] was 51, the “Mean Arterial Pressure” value [3, 8] was 75 mmHg and the “Heart Rate” value [3, 9] was 50. For the same molecule, the “Mean Arterial Pressure” value [3, 9] was 79 mmHg, the “Heart Rate” value [3, 10] was 50 and the “Mean Arterial Pressure” value [3, 10] was 78 mmHg. For the same molecule, the “Heart Rate” value [3, 11] was 53, the “Mean Arterial Pressure” value [3, 11] was 83 mmHg and the “Heart Rate” value [3, 12] was 54. The “Mean Arterial Pressure” value [3, 12] was 83 mmHg, the “lowest MAP observed” value ([3]; subject 1, at 16 and 120 minutes after sildenafil injection) was 75 and the “Heart Rate” value [3, 13] was 98. The “Mean Arterial Pressure” value [3, 13] was 69 mmHg, the “Heart Rate” value [3, 14] was 98 and the “Mean Arterial Pressure” value [3, 14] was 73 mmHg. For the same molecule, the “Heart Rate” value [3, 15] was 98, the “Mean Arterial Pressure” value [3, 15] was 75 mmHg and the “Heart Rate” value [3, 16] was 90. The “Mean Arterial Pressure” value [3, 16] was 81 mmHg, the “Heart Rate” value [3, 17] was 97 and the “Mean Arterial Pressure” value [3, 17] was 80 mmHg. For the same molecule, the “Heart Rate” value [3, 18] was 93, the “Mean Arterial Pressure” value [3, 18] was 75 mmHg and the “Heart Rate” value [3, 19] was 92. For the same molecule, the “Mean Arterial Pressure” value [3, 19] was 72 mmHg, the “Heart Rate” value [3, 20] was 94 and the “Mean Arterial Pressure” value [3, 20] was 75 mmHg. For the same molecule, the “lowest MAP” value ([3]; subject 2, at 15 minutes after sildenafil injection) was 69 mmHg, the adverse events ([3]; up to 9 hours after sildenafil injection) was “No adverse events” and the “dose-corrected mean Cmax” value [4] was 26.6 ng/mL. For the same molecule, the mean half-life [4] was 3.9 h, the “clearance lower than mean in healthy volunteers” value ([1]; second value, for CL 14.9 L/hr vs 40.8 L/hr) was 71% and the “observed maximum concentration of plasma sildenafil” value ([1]; subject 1 (first value)) was 35 ng/mL. For the same molecule, the “observed maximum concentration of plasma sildenafil” value ([1]; subject 2 (second value)) was 20.6 ng/mL and the “mean clearance of sildenafil reduced compared to normal controls” value ([2]; CTP class A and B cirrhosis, single 50 mg oral dose) was 46%.
